Test results reported in patent publication US20110086759A1, “CHEMICAL COMPOUNDS” (SYNGENTA CROP PROTECTION, INC., priority 2007, published 2011).

Assays:
Assay type in all cases: in vivo
[1] = system: Solanum nigrum (SOLNI); test: Pre-emergence biological efficacy, glasshouse pot test; settings: 312 h, pre-emergence, rate 1,000 g/ha, evaluated after 13 days (100=total damage to plant; 0=no damage), read-out: Percentage damage caused to weed species, SOLNI
Summary of the method: (§1)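 Compound was applied as a spray one day after sowing, at a final dose of 1000 or 250 g/ha. Plants grew under 14 h light, 24/16 °C and 65% humidity, and injury was assessed on day 13 on a 0–100 scale.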

[2] = system: Echinochloa crus-galli (ECHCG); test: as above; settings: 312 h, pre-emergence, rate 1,000 g/ha, evaluated after 13 days (100=total damage to plant; 0=no damage), read-out: Percentage damage caused to weed species, ECHCG
Summary of the method: as §1

[3] = system: Amaranthus retoflexus (AMARE); test: as above; settings: Amaranthus retroflexus, 312 h; pre-emergence, rate 1,000 g/ha, evaluated after 13 days (100=total damage to plant; 0=no damage); read-out: Percentage damage caused to weed species, AMARE
Summary of the method: as §1

[4] = system: Ipomea hederaceae (IPOHE); test: as above; settings: Ipomoea hederacea, 312 h; pre-emergence, rate 1,000 g/ha, evaluated after 13 days (100=total damage to plant; 0=no damage); read-out: Percentage damage caused to weed species, IPOHE
Summary of the method: as §1

[5] = system: Alopecurus myosuroides (ALOMY); test: as above; settings: 312 h, pre-emergence, rate 1,000 g/ha, evaluated after 13 days (100=total damage to plant; 0=no damage), read-out: Percentage damage caused to weed species, ALOMY
Summary of the method: as §1

[6] = system: Setaria faberi (SETFA); test: as above; settings: 312 h, pre-emergence, rate 1,000 g/ha, evaluated after 13 days (100=total damage to plant; 0=no damage), read-out: Percentage damage caused to weed species, SETFA
Summary of the method: as §1

[7] = system: Solanum nigrum (SOLNI); test: Post-emergence biological efficacy, glasshouse pot test; settings: 312 h, Rate 1,000 g/ha, post-emergence spray, evaluated after 13 days (100=total damage to plant; 0=no damage to plant), read-out: Percentage damage caused to weed species, post-emergence, SOLNI
Summary of the method: (§2)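 Plants were sown in standard soil and grown 8 days in a glasshouse (24/16° C. day/night, 14 hours light, 65% humidity), then sprayed post-emergence at 1000 or 250 g/ha from acetone/water (50:50) with 0.5% Tween 20. Damage was scored visually after 13 days (0 = none, 100 = total).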

[8] = system: Echinochloa crus-galli (ECHCG); test: as above; settings: 312 h, Rate 1,000 g/ha, post-emergence spray, evaluated after 13 days (100=total damage to plant; 0=no damage to plant), read-out: Percentage damage caused to weed species, post-emergence, ECHCG
Summary of the method: as §2

[9] = system: Amaranthus retoflexus (AMARE); test: as above; settings: Amaranthus retroflexus, 312 h; Rate 1,000 g/ha; post-emergence spray; evaluated after 13 days (100=total damage to plant; 0=no damage to plant); read-out: Percentage damage caused to weed species, post-emergence, AMARE
Summary of the method: as §2

[10] = system: Ipomea hederaceae (IPOHE); test: as above; settings: Ipomoea hederacea, 312 h; Rate 1,000 g/ha; post-emergence spray; evaluated after 13 days (100=total damage to plant; 0=no damage to plant); read-out: Percentage damage caused to weed species, post-emergence, IPOHE
Summary of the method: as §2

[11] = system: Alopecurus myosuroides (ALOMY); test: as above; settings: 312 h, Rate 1,000 g/ha, post-emergence spray, evaluated after 13 days (100=total damage to plant; 0=no damage to plant), read-out: Percentage damage caused to weed species, post-emergence, ALOMY
Summary of the method: as §2

[12] = system: Setaria faberi (SETFA); test: as above; settings: 312 h, Rate 1,000 g/ha, post-emergence spray, evaluated after 13 days (100=total damage to plant; 0=no damage to plant), read-out: Percentage damage caused to weed species, post-emergence, SETFA
Summary of the method: as §2

| SMILES | pest or weed control at 1000 g/ha [1] [%] | pest or weed control at 1000 g/ha [2] [%] | pest or weed control at 1000 g/ha [3] [%] | pest or weed control at 1000 g/ha [4] [%] | pest or weed control at 1000 g/ha [5] [%] | pest or weed control at 1000 g/ha [6] [%] | pest or weed control at 1000 g/ha [7] [%] | pest or weed control at 1000 g/ha [8] [%] | pest or weed control at 1000 g/ha [9] [%] | pest or weed control at 1000 g/ha [10] [%] | pest or weed control at 1000 g/ha [11] [%] | pest or weed control at 1000 g/ha [12] [%] |
| --- | --- | --- | --- | --- | --- | --- | --- | --- | --- | --- | --- | --- |
| CCN(Cc1ccnc(C)n1)c1nc(C2CC2)nc(C(=O)OC)c1Cl [Compound 6-161, 5-Chloro-2-cyclopropyl-4-[N-ethyl-N-(2-methylpyrimidin-4-ylmethyl)-amino]-6-methoxycarbonyl-pyrimidine] | 20 | 0 | 100 | 80 | 0 | 0 | 70 | 0 | 70 | 80 | 0 | 30 |
| CCOC(=O)c1nc(C2CC2)nc(NCc2ccccc2)c1Cl [Compound 7-60, 5-chloro-2-cyclopropyl-6-ethoxycarbonyl-4-phenylmethyl-aminopyrimidine] | 90 | 50 | 70 | 70 | 30 | 50 | 90 | 70 | 100 | 90 | 30 | 90 |
| CCOC(=O)c1nc(C2CC2)nc(NCc2ccco2)c1Cl [Compound 7-125, 5-Chloro-2-cyclopropyl-6-ethoxycarbonyl-4-(2-furanylmethyl-amino)pyrimidine] | 100 | 90 | 100 | 100 | 60 | 80 | 90 | 80 | 100 | 100 | 90 | 90 |
| O=C(O)c1nc(-c2ccc(Cl)cc2)nc(NCc2ccco2)c1Cl [Compound 37-125, 5-Chloro-2-(4-chlorophenyl)-4-(furan-2-ylmethylamino)-pyrimidine-6-carboxylic acid] | 100 | 90 | 100 | 40 | 50 | 90 | 100 | 90 | 100 | 100 | 70 | 100 |
| COC(=O)c1nc(-c2ccc(Cl)cc2)nc(NC2CC2)c1Cl [Compound 40-1, 5-Chloro-2-(4-chloro-phenyl)-4-cyclo-propylamino-6-methoxycarbonyl-pyrimidine] | 40 | 50 | 100 | 30 | 40 | 30 | 100 | 50 | 100 | 70 | 40 | 90 |
| COC(=O)c1nc(-c2ccc(Cl)cc2)nc(NCc2ccccc2)c1Cl [Compound 40-60, 5-Chloro-2-(4-chlorophenyl)-6-methoxycarbonyl-4-(phenylmethylamino) pyrimidine] | 30 | 50 | 90 | 0 | 20 | 0 | 70 | 0 | 60 | 100 | 0 | 0 |
